Assay results published in patent publication US6849645B2, “Method of increased bioavailability of nutrients and pharmaceutical preparations with tetrahydropiperine and its analogues and derivatives” (priority 2000, dated 2005).

Legend:
Earthworms = test: Albendazole induced anthelmintic activity on earthworms (paralysis and death); format: in vivo, earthworm
Description: An experiment to see how tetrahydropiperine enhances the skin permeability of anthelmintic drugs such as albendazole on intestinal worms was conducted. However, as a preliminary study towards this, tests on earthworms were conducted.
Earthworms were obtained from the Al Ameen College of Pharmacy, Bangalore. Albendazole (Zentel) was obtained from Smith Kline Beecham Pharmaceuticals, Bangalore. The aqueous test solution contained tetrahydropiperine (Tetraperine™, A proprietary product of Sabinsa Corporation, USA) of 0.1% and 0.2% w/v suspended in 0.25% w/v sodium carboxy methyl cellulose.
1. Effect of Albendazole: Earth worms of similar length and weight were divided into three groups of six worms each. […] The time of onset of paralysis was noted and the death of the worms were observed and recorded as above.

[1] = format: in vitro ADME, mouse
Description: The drug (100 ug/ml) was applied with 0.1% (active sample) or without (control sample) of THP in the donor compartment. Subsequently the absorbencies of the fluid in the receptor compartment for the presence of BMDP and THP were measured in time intervals of 5, 10, 15, 20, 30, 45 and 60 minutes.
Franz diffusion cell was utilized in the experiment. This is an in vitro set-up prepared from the graft of the abdominal skin of mouse to evaluate absorption of drugs and nutrients through the skin. The Franz diffusion cell contains Donor and Receptor compartments. The test drug, BMDP, with or without tetrahydropiperine (Control) was applied on one side of the skin (Donor compartment). The drug's transport to the Receptor side of the skin was estimated by UV method at pre-determined time intervals. […]
The hydrated skin was mounted on Franz diffusion cell with shaved surface facing the donor compartment. […] Absorbance of each sample was measured by UV spectrophotometer at the wavelength of 256 nm. • b. […] Absorbance of each sample was measured by UV spectrophotometer at the wavelength of 256 nm.
UV absorption Spectra of BMDP solutions show absorption at 238 nm when prepared in saline with tween 20 solution. […] Tetrahydropiperine gave absorbance at 228 nm and 275 nm. • 2. The absorbance of tetrahydropiperine was minimum at 256 nm while it was good for BMDP. […]

[2] = tested on: tobacco cut worm, Spodoptera litura F.; test: whole plant or invertebrate; settings: Spodoptera litura, in Nicotiana tabacum, 48 h, read-out: PERCENT MORTALITY (Mean of 4 replications)
Description: The tetrahydropiperine was tested against tobacco cut worm, Spodoptera litura F. to determine its possible increased kill rate when used with Fenvalerate—a synthetic pyrethroid.
• a. Preparation of test solution—0.5 g of the test product was dissolved in 1 ml of Ethanol and made up to 100 ml in standard volumetric flask using suitable emulsifier. This solution contains 5000 ppm a.i. (0.5 percent). Further, serial dilution was made to get 0.25, 0.125 and 0.0625% of the test product. To each of these test solutions, Fenvalerate was added to get 250 ppm of Fenvalerate a.i. in the final volume. For comparison 0.5 percent of Tetrahydropiperine, Ethanol 1.0 percent solution and 250 ppm a.i. of Fenvalerate was used. • b. Bioassay—Laboratory reared 7 day old larvae of tobacco cut worm, Spodoptera litura were used in the experiment. After a series of preliminary tests the concentrations chosen for the experiment were 0.5, 0.25, 0.125 and 0.0625 percent tetrahydropiperine. Fresh castor leaves were dipped for 30 seconds in above concentrations of test and standard compounds and blank solutions. After proper drying, the treated leaves were transferred to plastic containers. To each container 5 larvae were released. This was repeated four times so as to have 20 larvae for each concentration. Larvae in control set were fed with leaves dipped in water. Observations were recorded for larval mortality after 48 hours of exposure. Results

[3] = Franz diffusion cell, in vitro transdermal permeation of Forskolin with or without tetrahydropiperine; format: in vitro ADME, rat
Description: In vitro permeation studies of Forskholin, a diterpenoid compound which has various therapeutic effects (Bronchodilation—used in Asthma, prevents platelet aggregation, anti hypertensive, anti glaucoma and anti-inflammatory) was carried out. Fabricated Franz diffusion cells of capacity 67 and 69 ml were used for the study. Freshly excised rat abdominal skin was used for the permeation studies.
Solutions Used in the Study • a) 2.5% Forskolin in methanol. • b) 0.05% Tetrahydropiperine in 2.5% Forskolin in methanol. • c) 0.1% Tetrahydropiperine in 2.5% Forskolin in methanol. Procedure
Freshly excised rat abdominal […] was mounted on the Franz diffusion Cell, the outer layer of the skin facing the donor compartment. The receptor fluid was maintained at 35° C. using a thermostatic magnetic stirrer.
The study was conducted by replacing the medium in the receptor compartment with methanol instead of phosphate buffer. In both the receptor and donor compartment methanol was used as the medium in the permeation studies.
In the donor compartment 2 ml methanol containing 50 mg of Forskolin and tetrahydropiperine (5% of Forskolin conc.) was taken. Receptor compartment consisted of 69 ml of methanol maintained at 35° C. Permeation study was carried out for a period of 1 hr. Samples were withdrawn at 15, 30 and 60 minutes intervals and the amount of Forskholin present was analyzed by HPLC.
In the donor compartment 2 ml methanol containing 50 mg of Forskholin was taken. Receptor compartment consisted of 65 ml of methanol maintained at 35° C. Permeation study was carried out for a period of 1 hour. Samples were withdrawn at 15, 30 and 60 minutes intervals and the amount of Forskholin present was analyzed by HPLC.

In the case of `CCCSc1ccc2nc(NC(=O)OC)[nH]c2c1` [Albendazole, reference compound], the “Time taken in minutes (Mean ± SEM), Paralysis” value (Earthworms; Albendazole 0.2% w/v alone) is reported as 99.0 ± 3.93 min, the “time until anthelmintic activity” value (Earthworms; albendazole 0.1%) is reported as over 2 h and the “time until anthelmintic activity” value (Earthworms; albendazole 0.2%) is reported as at most 2 h.

In the case of `CCC(=O)OCC(=O)[C@@]1(OC(=O)CC)[C@@H](C)C[C@H]2[C@@H]3CCC4=CC(=O)C=C[C@]4(C)[C@@]3(F)[C@@H](O)C[C@@]21C` [BMDP, Betamethasone dipropionate], the “amount of drug (BMDP) diffused in control” value [1] is reported as “undetectable”.

In the case of `CC(C)C(C(=O)OC(C#N)c1cccc(Oc2ccccc2)c1)c1ccc(Cl)cc1` (centres unmarked) [Fenvalerate, reference compound], the mortality at 250 ppm [2] is reported as 55%.

With `C=C[C@@]1(C)CC(=O)[C@]2(O)[C@@]3(C)[C@@H](O)CCC(C)(C)[C@@H]3[C@H](O)[C@H](OC(C)=O)[C@@]2(C)O1` [Forskolin, reference compound] the “Forskolin Release Control” value ([3]; Forskolin 50 mg in methanol without THP, 15 min) was 1.28, the “Forskolin Release Control” value ([3]; Forskolin without THP, 30 min) was 4.05 and the “Forskolin Release Control” value ([3]; Forskolin without THP, 60 min) was 8.45.
